According to patent US6368852B1, “Peptide capable of inducing immune response to human gastric cancer and agent for preventing or treating human gastric cancer, containing the peptide” (Ajinomoto Co., Inc., priority 1995, dated 2002):
Where no end group is shown, it is not given here.

Legend:
[1] = system: Tc-HST-2 cells with HST-2 cells expressing HLA-A31 antigen as target cells; test: CTL assay using a TNF-releasing method (Wehi164/MTT); format: cell-based, human; settings: peptide final concentration 10 μM, 1 μM or 0.1 μM; HST-2 target cells; target cells to CTL 1:100; 12 hours
Description: That is, in the TNF-releasing method, the HLA-A31-positive HST-2 or KG-1 cell is mixed with the peptide of the present invention, and the mixture is incubated at 37° C. for 3 hours. Then, Tc-HST-2 cells are added thereto, and the resulting mixture is further incubated for 12 hours. The activity of any TNF released in the supernatant is measured to detect the CTL inducibility.
The TNF activity can be measured by the method described in Immunogenetics, vol. 35, p. 145 (1992).
That is, TNF-sensitive Wehi164 cells are mixed with a test sample, and the mixture is incubated for 24 hours. Then, an MTT [3-(4,5-dimethylthiazol-2-yl)-2,5-diphenyl tetrazolium bromide] solution is added to the culture, and the resulting mixture is further incubated for 3 hours. After any formazan converted within mitochondria is dissolved in acid propanol, the amount thereof is measured in terms of an absorbance at OD570 to detect the TNF activity.
That is, 1×10^4 HST-2 cells expressing HLA-A31 antigen were suspended as target cells in 100 μl of the solution, and 5 μl of each of the above-mentioned four synthetic peptides were added thereto such that the final concentration reached 10 μM, 1 μM or 0.1 μM. The mixture was further incubated under the same conditions for 3 hours to bind the HLA-bound peptide to the HLA molecule. Subsequently, Tc-HST-2 cells (1×10^6 cells/ml) were added thereto in an amount of 100 μl, and the resulting mixture was further incubated for 12 hours under the same conditions.
After 12 hours of incubation, 30 μl of the supernatant formed was collected, and the TNF activity released in the supernatant was measured to detect the CTL inducibility. The TNF activity was measured by the following method.
That is, 7×10^4 Wehi164 cells which are TNF-sensitive cells were suspended in 120 μl of the solution, and 30 μl of the above-obtained supernatant were added thereto. The mixture was incubated for 24 hours. […] Then, the absorbance was measured at a wavelength of 570 nm to measure the TNF activity.

[2] = system: Tc-HST-2 cells with HST-2 or KG-1 cells expressing HLA-A31 antigen as target cells; test: CTL inducibility by the 51Cr-releasing method (specific cytotoxicity of Tc-HST-2); format: cell-based, human; settings: HLA-bound peptide from HST-2 separated by reversed-phase HPLC; target cells to CTL 1:100; 12 hours incubation
Description: That is, HLA-A31-positive HST-2 or KG-1 cells are radio-labeled with sodium chromate containing ^51Cr, and are then mixed with the HLA-bound peptide separated through reversed phase chromatography. The mixture is incubated at 37° C. for 3 hours, and Tc-HST-2 is then added thereto. The resulting mixture is further incubated for 12 hours. The CTL inducibility can be detected by measuring the radio-activity of ^51Cr released in the supernatant.
The CTL inducibility of the HPLC elution fractions against Tc-HST-2 cells was measured as follows. […]
Subsequently, Tc-HST-2 cells (2.5×10^5 cells/ml) were added thereto in an amount of 100 μl, and the mixture was incubated under the same conditions for 12 hours. After 12 hours of incubation, 100 μl of the supernatant formed were collected, and the radioactivity of ^51Cr released in this supernatant was measured using a γ-counter to measure the CTL activity.
The specific cytotoxicity was calculated using the following formula. […]
wherein the minimum release value indicates a measured value of a well filled with target cells alone and a value of ^51Cr naturally released from target cells, and the maximum release value indicates a release value when the cells are destroyed by adding a surfactant, 1% Triton x-100, to target cells.

| Substance | CTL inducibility of Tc-HST-2 (TNF activity released in the supernatant) [1] | CTL inducibility of Tc-HST-2 (specific cytotoxicity, 51Cr release) [2] |
| --- | --- | --- |
| YSWMDISC [Peptide 1-8] | no CTL inducibility | – |
| Peptide 1-7: peptide containing 7 amino acids starting from the N-terminus of Synthetic Peptide 1 (SEQ ID NO: 4) (YSWMDIS) | no CTL inducibility | – |
| YSWMDISCWI [Peptide 1, Tyr Ser Trp Met Asp Ile Ser cys Trp Ile] | – | exhibiting the CTL inducibility |
| YSWMDISCW [Peptide 1-9] | CTL inducibility of TC-HST-2 was identified | – |
